Measurements taken from paper PMC8405091, “Microwave-assisted Phospha-Michael addition reactions in the 13α-oestrone series and in vitro antiproliferative properties” (Journal of Enzyme Inhibition and Medicinal Chemistry, 2021).

Legend:
[1] = system: A2780 cells; assay: MTT antiproliferative assay, A2780; assay type: cell-based, human; settings: Homo sapiens, A2780, 72 h; for inhibition at 10 µM / inhibition at 30 µM: read-out: Growth inhibition, % ± SEM, 72 h; for inhibition at 10 µM: A2780, 10 μM; for inhibition at 30 µM: A2780, 30 μM; for IC50: read-out: calculated IC50 value
Method in brief: (§1)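 MTT readout after 4 h contact, formazan taken up in DMSO. Compounds tested at 10 and 30 µM for 72 h; seeding 5,000 cells/well, C33-A 10,000/well. Oropharyngeal lines grown with 2.0 mM L-glutamine.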

[2] = system: C33-A cells; assay: MTT antiproliferative assay, C33-A; assay type: cell-based, human; settings: Homo sapiens, C-33-A, 72 h; for inhibition at 10 µM: read-out: Growth inhibition, % ± SEM, C33-A, 10 μM; for inhibition at 30 µM: read-out: Growth inhibition, % ± SEM, C33-A, 30 μM; for IC50: read-out: calculated IC50 value
Method in brief: as §1

[3] = system: T47D cells; assay: MTT antiproliferative assay, T47D; assay type: cell-based, human; settings: Homo sapiens, 72 h; for inhibition at 10 µM: read-out: Growth inhibition, % ± SEM, 10 μM; for inhibition at 30 µM: read-out: Growth inhibition, % ± SEM, 30 μM; for IC50: read-out: calculated IC50 value
Method in brief: as §1

[4] = system: SiHa cells; assay: MTT antiproliferative assay, SiHa; assay type: cell-based, human; settings: Homo sapiens, 72 h; for inhibition at 10 µM: read-out: Growth inhibition, % ± SEM, 10 μM; for inhibition at 30 µM: read-out: Growth inhibition, % ± SEM, 30 μM; for IC50: read-out: calculated IC50 value
Method in brief: as §1

[5] = system: MCF-7 cells; assay: MTT antiproliferative assay, MCF-7; assay type: cell-based, human; settings: Homo sapiens, MCF7, 72 h; for inhibition at 10 µM / inhibition at 30 µM: read-out: Growth inhibition, % ± SEM, 72 h; for inhibition at 10 µM: MCF-7, 10 μM; for inhibition at 30 µM: MCF-7, 30 μM; for IC50: read-out: calculated IC50 value
Method in brief: as §1

[6] = system: UPCI-SCC-131 cells; assay: MTT antiproliferative assay, UPCI-SCC-131; assay type: cell-based, human; settings: Homo sapiens, 72 h, 72 h; for inhibition at 10 µM / inhibition at 30 µM: read-out: Growth inhibition, % ± SEM; for inhibition at 10 µM: UPCI-SCC-131, 10 μM; for inhibition at 30 µM: UPCI-SCC-131, 30 μM; for IC50: read-out: calculated IC50 value
Method in brief: as §1

[7] = system: UPCI-SCC-154 cells; assay: MTT antiproliferative assay, UPCI-SCC-154; assay type: cell-based, human; settings: Homo sapiens, 72 h, 72 h; for inhibition at 10 µM / inhibition at 30 µM: read-out: Growth inhibition, % ± SEM; for inhibition at 10 µM: UPCI-SCC-154, 10 μM; for inhibition at 30 µM: UPCI-SCC-154, 30 μM; for IC50: read-out: calculated IC50 value
Method in brief: as §1

[8] = system: MDA-MB-231 cells; assay: MTT antiproliferative assay, MDA-MB-231; assay type: cell-based, human; settings: Homo sapiens, MDA-MB-231, 72 h; for inhibition at 10 µM / inhibition at 30 µM: read-out: Growth inhibition, % ± SEM; for IC50: read-out: calculated IC50 value
Method in brief: as §1

[9] = system: non-cancerous mouse embryo fibroblast (NIH/3T3) cells; assay: MTT assay on non-cancerous fibroblasts (tumour selectivity); assay type: cell-based; settings: for inhibition at 10 µM / inhibition at 30 µM / IC50: Mus musculus, NIH3T3, 72 h; for inhibition at 10 µM / inhibition at 30 µM: read-out: Growth inhibition, % ± SEM; for IC50: read-out: calculated IC50 value
Experimental: (§2) The antiproliferative properties of the newly synthesized compounds (9–20) and their starting materials (4 and 5) were determined on a panel of human adherent cancer cell lines. MCF-7, MDA-MB-231 and T47D were isolated from breast cancers differing in biochemical background, while A2780 cells were isolated from ovarian cancer. HeLa and SiHa are cervical cancer cell lines positive for HPV-18 and HPV-16, respectively, while C33-A cervical cancer cells are negative for HPV. Moreover, two oropharyngeal cancer cell lines were also utilized: the HPV-negative UPCI-SCC-131 and HPV-16 positive UPCI-SCC-154. The cancer selectivity of compounds was tested on the non-cancerous mouse embryo fibroblast cell line NIH/3T3. All cell lines were purchased from European Collection of Cell Cultures (ECCAC, Salisbury, UK) exception for SiHa and C33-A (American Tissue Culture Collection, Manassas, VA, USA) and HN-SCC-131 and UPCI-SCC-154 (German Collection of Microorganisms and Cell Cultures GmbH, Braunschweig, Germany). Cells were cultivated in minimal essential medium supplemented with 10% fetal bovine serum, 1% non-essential amino acids and an antibiotic–antimycotic mixture. The medium of oropharyngeal cancer cells additionally contained 2.0 mM L-glutamine. All media and supplements were obtained from Lonza Group Ltd., Basel, Switzerland. Near-confluent cancer cells were seeded onto a 96-well microplate at a density of 5,000 cells/well, except for C33-A which were seeded at 10,000/well. After overnight standing, new medium containing the tested compounds at 10 and 30 µM final concentration was added. After incubation for 72 h at 37 °C in humidified air containing 5% CO2, the living cells were assayed by the addition of 20 μL of 5 mg/ml 3-(4,5-dimethylthiazol-2-yl)-2,5-diphenyltetrazolium bromide (MTT) solution. MTT was converted by intact mitochondrial reductase and precipitated as purple crystals during a 4-h contact period. The medium was next removed and the precipitated formazan crystals were dissolved in 100 μL of DMSO during a 60-min period of shaking at 37 ^оC.
All in vitro experiments were carried out twice with five parallels. Stock solutions of the tested substances (10 mM) were prepared in DMSO. […] Cisplatin (Ebewe Pharma GmbH, Unterach, Austria) was used as positive control.

[10] = system: HeLa cells; assay: MTT antiproliferative assay, HeLa; assay type: cell-based, human; settings: Homo sapiens, 72 h; for inhibition at 10 µM: read-out: Growth inhibition, % ± SEM, 10 μM; for inhibition at 30 µM: read-out: Growth inhibition, % ± SEM, 30 μM; for IC50: read-out: calculated IC50 value
Method in brief: as §1

[11] = system: panel of human adherent cancer cell lines; assay: MTT antiproliferative assay, whole panel of cell lines; assay type: cell-based; settings: read-out: IC50 (span over the panel)
Experimental: as §2, with “^оC. […]” for “^оC.”

| Compound | inhibition at 10 µM [1] [%] | inhibition at 30 µM [1] [%] | IC50 [1] [µM] | inhibition at 10 µM [2] [%] | inhibition at 30 µM [2] [%] | IC50 [2] [µM] | inhibition at 10 µM [3] [%] | inhibition at 30 µM [3] [%] | IC50 [3] [µM] | inhibition at 10 µM [4] [%] | inhibition at 30 µM [4] [%] | IC50 [4] [µM] | inhibition at 10 µM [5] [%] | inhibition at 30 µM [5] [%] | IC50 [5] [µM] | inhibition at 10 µM [6] [%] | inhibition at 30 µM [6] [%] | IC50 [6] [µM] | inhibition at 10 µM [7] [%] | inhibition at 30 µM [7] [%] | also measured |
| --- | --- | --- | --- | --- | --- | --- | --- | --- | --- | --- | --- | --- | --- | --- | --- | --- | --- | --- | --- | --- | --- |
| COc1ccc2c(c1)CC[C@@H]1[C@@H]2CC[C@@]2(C)C(=O)[C@H](CP(=O)(c3ccccc3)c3ccccc3)C[C@@H]12 [Compound 9, [(3-methoxy-17-oxo-13α-oestra-1,3,5(10)-trien-16α-yl)methyl]diphenylphosphine oxide] | 47.2 ± 2.75 | 98.99 ± 0.41 | 11.7 | < 20 | 97.85 ± 0.32 | 13.3 | 57.5 ± 3.15 | 93.77 ± 0.55 | 7.2 | < 20 | 96.5 ± 1.24 | 13.8 | 21.3 ± 2.79 | 93.1 ± 1.6 | 13.7 | 63.4 ± 1.41 | 99.35 ± 0.27 | 5.3 | < 20 | 99.8 ± 1.48 | IC50 [7]: 13.5 µM; inhibition at 10 µM [8]: < 20%; inhibition at 30 µM [8]: 99.03 ± 0.73%; IC50 [8]: 23.5 µM; inhibition at 10 µM [9]: < 20%; inhibition at 30 µM [9]: 96.55 ± 0.86%; IC50 [9]: 20.4 µM; Tumour selectivity: IC50 on NIH/3T3 relative to IC50 on UPCI-SCC-131 ([9]; NIH/3T3 vs UPCI-SCC-131): four times higher; inhibition at 10 µM [10]: < 20%; inhibition at 30 µM [10]: 97.59 ± 0.73%; IC50 [10]: 12.9 µM |
| C[C@@]12CC[C@@H]3c4ccc(OCc5ccccc5)cc4CC[C@H]3[C@@H]1C[C@H](CP(=O)(c1ccccc1)c1ccccc1)C2=O [Compound 12, [(3-benzyloxy-17-oxo-13α-oestra-1,3,5(10)-trien-16β-yl)methyl]diphenylphosphine oxide] | < 20 | 97.14 ± 0.55 | 28.5 | < 20 | 97.68 ± 0.85 | 13.6 | 31.4 ± 1.55 | 75 ± 1.65 | 17 | < 20 | 94.8 ± 1.48 | 14.1 | < 20 | 90.2 ± 1.61 | 16.4 | 49.4 ± 2.06 | 90 ± 1.15 | 14.2 | < 20 | 75.5 ± 1.84 | IC50 [7]: 29.8 µM; inhibition at 10 µM [8]: < 20%; inhibition at 30 µM [8]: 84 ± 2.61%; IC50 [8]: 24.5 µM; IC50 [11]: 13.6 to 29.8 µM; inhibition at 10 µM [9]: < 20%; inhibition at 30 µM [9]: 48.3 ± 1.65%; IC50 [9]: 30.9 µM; inhibition at 10 µM [10]: < 20%; inhibition at 30 µM [10]: 96.4 ± 1.88%; IC50 [10]: 13.6 µM |
| COc1ccc2c(c1)CC[C@@H]1[C@@H]2CC[C@@]2(C)C(=O)[C@H](CP(=O)(c3ccc(C)cc3)c3ccc(C)cc3)C[C@@H]12 [Compound 13, [(3-methoxy-17-oxo-13α-oestra-1,3,5(10)-trien-16α-yl)methyl]di-p-tolylphosphine oxide] | < 20 | 97.77 ± 0.35 | 23.8 | < 20 | 96.31 ± 0.46 | 14.5 | 26.7 ± 1.95 | 89.82 ± 0.68 | 13.6 | < 20 | 92.9 ± 0.85 | 13.7 | < 20 | 84.9 ± 2.54 | 14.8 | 29.9 ± 1.21 | 97.02 ± 0.43 | 12.3 | < 20 | 75.9 ± 1.93 | IC50 [7]: 21.5 µM; inhibition at 10 µM [8]: < 20%; inhibition at 30 µM [8]: 95.56 ± 0.67%; IC50 [8]: 25.8 µM; IC50 [11]: 10 to 25 µM; inhibition at 10 µM [9]: < 20%; inhibition at 30 µM [9]: 89.76 ± 0.49%; IC50 [9]: 19.3 µM; inhibition at 10 µM [10]: < 20%; inhibition at 30 µM [10]: 95.69 ± 0.69%; IC50 [10]: 14.3 µM |
| COc1ccc2c(c1)CC[C@@H]1[C@@H]2CC[C@@]2(C)C(=O)[C@@H](CP(=O)(c3ccc(C)cc3)c3ccc(C)cc3)C[C@@H]12 [Compound 14, [(3-methoxy-17-oxo-13α-oestra-1,3,5(10)-trien-16β-yl)methyl]di-p-tolylphosphine oxide] | < 20 | 100.3 ± 0.22 | 21.5 | 26.9 ± 2.13 | 101.1 ± 0.24 | 10.9 | 22.6 ± 1.33 | 86 ± 1.51 | 13.8 | < 20 | 93 ± 1.37 | 11.8 | < 20 | 90 ± 2.88 | 14.4 | 48.8 ± 1.5 | 97.3 ± 1.38 | 10.9 | < 20 | 87 ± 1.16 | IC50 [7]: 11.4 µM; inhibition at 10 µM [8]: < 20%; inhibition at 30 µM [8]: 98.22 ± 0.39%; IC50 [8]: 17.6 µM; IC50 [11]: 10 to 25 µM; inhibition at 10 µM [9]: < 20%; inhibition at 30 µM [9]: 52.7 ± 2.87%; IC50 [9]: 29.6 µM; inhibition at 10 µM [10]: < 20%; inhibition at 30 µM [10]: 99.14 ± 0.37%; IC50 [10]: 12.2 µM |
